Where a name gives a salt, the structure may show the parent alone. Where a SMILES comes first, the peptide text is derived from it.

Data set [1] is described as follows: metabolism after oral and parenteral administration (statement). The data set is classed as in vivo. Particulars: oral and parenteral routes of administration.
Data set [2] relates to mast cells of the nasal mucosa. Description: mast cell degranulation of nasal mucosa of guinea pig by instillation of 48/80. Format: in vivo. Here is the method:
The test is based on the determination by microscopy of the number of granulated mast cells per unit area in the nasal mucosa of the guinea pig, and on the study of the administration of a histamine releasing substance --48/80--on this number of mast cells. Guinea pigs receive in each nostril, twice daily during 3 days. 0.1 ml of the product under investigation, 15 minutes before the nasal instillation of 0.1 ml of 48/80 in solution at 2 % concentration; the animals are sacrificed 1 hour after the last instillation.
After sacrifice, the nasal mucosa is removed, then fixed and stained with toluidine blue to allow selective staining of the granulated mast cells. For each animal, the mast cells contained in 100 microscopic fields are counted by microscopy.

Data set [3] deals with sub-acute and chronic atopic conjunctivitis. Description: clinical study in sub-acute and chronic atopic conjunctivitis (Example XII). Format: in vivo. Particulars: 27 patients; at least one year on 2 % Cromoglycate, then two months 4 % NAAGA eye-drops four times daily. The protocol: Twenty seven patients suffering from sub-acute and chronic atopic conjunctivitis who were treated for at least one year on 2 % Cromoglycate eye-drops, were switched from Cromoglycate treatment to 4 % NAAGA eye-drops four times daily. Before and after two months treatment period with composition according to example I.2., the patients were checked objectively in order to score the severity of conjunctival livid hyperemia and the amount of exudate. Subjectively the patients were asked to assess the symptoms of itching, burning and photophobia. Objective and subjective assessments were scored by means of visual analog scales.

Data set [4] has as its system chronic allergic conjunctivitis. Description: double blind clinical study in chronic allergic conjunctivitis (Example IX). The data set is classed as in vivo, patients. The protocol:
The trial was performed in double blind. The objective was to determine the effects of the composition according to Example I.2.: an ophthalmic solution at 4 % concentration, on the ocular symptoms and inflammatory conjunctival signs of patients suffering from chronic allergic conjunctivitis, compared with the sodium cromoglycate in ophthalmic solution at 2 % concentration used in therapy. The results of this comparative study concern 33 patients, of both sexes, who were distributed randomly into two groups: received the composition according to Example I.2. during 2 weeks at the rate of 1 drop in each eye to be treated, 3 to 5 times daily. These patients then received sodium cromoglycate in eye-drops at 2 % concentration (commercial eye-drops) during two supplementary weeks and at the same dosage, 16 patients received the same eye-drops in the reverse order and for the same lengths of time. The random assortment of the patients ensured good homogeneity in the distribution between the two treatment groups, not only in respect of the clinical characteristics, but also in respect of the duration of administration of the eye-drops under trial, and the use of concomitant treatments.

A further data set relates to allergic conjunctivitis. Description: trial on allergic conjunctivitis in the rabbit. The data set is classed as in vivo. Conditions: n = 12 eyes. From the text: The experimental protocol has been established according to works by OKADA et al. (OKADA-SHIMADA, Invest. Ophthalmol. Vis. Sc. 1980, 19 2, 176-181).
The model of allergic conjunctivitis used consists in effecting a conjunctival immunization in rabbits by local injection of rabbit antibodies to bovine gammaglobulins. The conjunctivitis is then triggered by the inflammation of allergic origin thus provoked are observed as an increase in the weight of the conjunctiva, and as enhancement of the conjunctival capillary permeability to iodine-125 labeled rabbit serum albumin injected intravenously before the injection of the antigen.
Two hours after the injection of bovine gammaglobulins, the rabbits are sacrificed, and then the eyes are removed and the conjunctiva dissected out, weighed and submitted to radioactive counting.
Three parameters are recorded:
the weight of the conjunctiva,
the blood conjunctiva permeability index, evaluated as the ratio of the radioactivity of 1 mg of conjunctiva to that of 1 ml of blood,
the quantity of labeled serum albumin recovered in the conjunctiva.
To evaluate the protective effect of the preparation under investigation, several batches of six rabbits are formed, which receive 6 instillations of 2 eye-drops in each eye daily for 3.5 days before the injection of labeled serum albumin.
One batch of six normal rabbits, not tested and not subjected to provacation of the allergy, is also formed ("blank" batch), as well as a batch of six control rabbits receiving instillations of physiological serum before the triggering of the conjunctivitis ("conjunctivitis controls").

Data set [5] concerns perennial allergic rhinitis. Description: double-blind cross-over clinical study in perennial allergic rhinitis (Example XIII). Conditions: 2 sprays per nostril, 5 times per day, 2 weeks. The data set is classed as in vivo, patients. Here is the method: The aim of the present study was to determine the efficacy and tolerance of the composition according to example II.2., in the treatment of allergic rhinitis. For this purpose, a double-blind trial was undertaken versus a reference drug: disodium Cromoglycate in a 2 % nasal solution. The study involved 34 patients, suffering from perennial allergic rhinitis. Each patient was included in a cross-over treatment protocol, according to which the two drugs compared were administered successively during 2 treatment periods of 2 weeks each, at the dose of 2 sprays per nostril, 5 times per day.

For a further data set, the system named is ciliary movement. Description: acute tolerance on ciliary movement, overall verdict. Conditions: contact times which exceed 20 minutes. The data set is classed as cell-based, guinea pigs or rabbits. The text has this:
The technique used has been described under the name of microphotooscillography (L. G. CHEVANCE, J. F. LENNON: Etude des rythmes du battement ciliare (Study of rhythms of ciliary beating) Acta Otolaryng., 1970-70, 16-28)). In this study, guinea pigs or rabbits were used which were free of all clinical sign of infection of the airways. The animals are sacrificed, and then the nasal septum or trachea is dissected out. These tissues are placed in PBS survival medium and the superficial epithelium is removed by scraping, over an area of about 1 mm^2. This sample, which contains numerous ciliated cells in movement, is placed in an observation chamber under a special microscope equipped with a microphotoelectric system permitting the recording of ciliary beats in transillumination.
The measurement consists in recording the fluctuations in the light caused by the image, enlarged 500 times, of a cilium moving in front of the aperture of a diaphragm of suitable dimensions. After amplification, the fluctuations in light are recorded graphically.
Impairments of ciliary movement are translated as a decrease in the frequency of the ciliary beats. […]

As to `CC(=O)N[C@@H](CC(=O)O)C(=O)N[C@@H](CCC(=O)O)C(=O)O` [NAAGA, N-acetyl-(alpha, beta)-aspartyl glutamic acid] (Ac-Asp-Glu-OH), the metabolism entry in data set [1] is “rapidly and extensively metabolized”.
Take `O=C(O)c1cc(=O)c2c(OCC(O)COc3cccc4oc(C(=O)O)cc(=O)c34)cccc2o1` [sodium cromoglycate]: in data set [2] (0.1 ml in each nostril twice daily during 3 days, 15 minutes before 48/80 at 2 %), the “Average number of granulated mast cells per microscopic field” value is given as 4.6. Also, in data set [2] (2 % concentration (commercial solution), same experimental condition), the “protective effect inferior to that of NAAGA by” value is “about 40%”. Moreover, in data set [3], the “frequency of marginal objective control” value is reported as 33% and the “frequency of marginal subjective control” value was 37%. In data set [4] (1 drop in each eye 3 to 5 times daily, 2 weeks per product, 33 patients), the “patients with improvement in the ocular symptoms” value is “more than 65%”. For the same compound, the “preferences expressed by the patients” value in data set [4] (cross-over comparison of the two eye-drops) is given as 33%. Besides, the “Quantity of serum albumin in the conjunctiva” value with allergic conjunctivitis (6 instillations of 2 eye-drops in each eye daily for 3.5 days, mean ± spread) was found to be 34.5 ± 13.6 µg. In addition, the “Weight of the conjunctiva” value in the data set on allergic conjunctivitis came out at 411 ± 64 mg. Moreover, in the data set on allergic conjunctivitis (ratio of radioactivity of 1 mg of conjunctiva to that of 1 ml of blood, × 100), the “Blood-conjunctiva index (× 100)” value was 4.7 ± 1.8. Besides, in data set [5], the “Nasal and systemic tolerance” value was “good and no side-effects were seen”; the “patients with results of treatment considered to be good” value amounted to 61%.
On to `CC(=O)N[C@@H](CC(=O)O)C(=O)N[C@@H](CCC(=O)O)C(=O)O` [sodium salt] (Ac-Asp-Glu-OH), for which the “acute tolerance on ciliary movement versus criterion (not more than 50% decrease after twenty minutes)” value in the data set on ciliary movement is “Analogous results”.

The record behind these values is US5000936A, “Methods for locally-treating allergic disorders with pharmaceutical preparations containing N-acetyl-aspartyl glutamic acid or its salts” (THEA (Therapeutique et Applications) S.A., priority 1983, dated 1991).
